In US9139578B2 (BRISTOL-MYERS SQUIBB COMPANY, priority 2012, dated 2015):

Target: endothelial lipase (EL) (Homo sapiens (Human), UniProt Q9Y5X9)
Assay: Endothelial lipase (EL) enzymatic assay with fluorescent substrate A10070 in DMPG vesicles
Format: biochemical
Conditions: conditioned media from HT-1080 cells overexpressing endogenous EL; 20 min preincubation at 37° C.
Protocol: Endothelial lipase activity was measured using a fluorescent substrate, A10070, (Invitrogen, CA) doped into an artificial vesicle containing DMPG (Avanti Polar Lipids) as the excipient. Vesicles were prepared by combining 285 μL, of 1 mM DMPG in a 1:1 mixture of MeOH and CHCl3 with 15 μL, of 1 mM A10070 in a 1:1 mixture of MeOH and CHCl3. The mixture was dried under nitrogen and resuspended in 150 μL, of 50 mM HEPES pH 8.0 buffer containing 100 mM NaCl and 0.2 mM EDTA. The sample was allowed to sit at rt for 15 min and then was sonicated 3×4 mins on ice with a Branson Sonicator using duty cycle 1. This preparation provides vesicles with a mole fraction of 0.05 for the FRET substrate.
The enzymatic assay was measured using white, opaque 96-well half area plates. Each well contained 60 μL, of assay buffer (50 mM HEPES pH 8.0, 50 mM NaCl and 1 mM CaCl2) and 2 ul of a DMSO solution containing compound of interest. Conditioned media obtained from HT-1080 cells, which were transformed by RAGE technology (Athersys) to overexpress endogenous EL, was added and the reaction was allowed to incubate for 20 min at 37° C. with gentle agitation. The reaction was started by the addition of 20 μL, of a 1:4 dilution of vesicles. The final total reaction volume was 100 μL. The reaction rates were measured on a Gemini plate reader with an excitation wavelength of 488 nm and an emission of 530 nm. Readings were taken every 20 seconds for 10 min with agitation between each reading. The slope of the linear portion of the readout was used to calculate the rate of the reaction.

endothelial lipase (EL), sequence (Q9Y5X9 21-500): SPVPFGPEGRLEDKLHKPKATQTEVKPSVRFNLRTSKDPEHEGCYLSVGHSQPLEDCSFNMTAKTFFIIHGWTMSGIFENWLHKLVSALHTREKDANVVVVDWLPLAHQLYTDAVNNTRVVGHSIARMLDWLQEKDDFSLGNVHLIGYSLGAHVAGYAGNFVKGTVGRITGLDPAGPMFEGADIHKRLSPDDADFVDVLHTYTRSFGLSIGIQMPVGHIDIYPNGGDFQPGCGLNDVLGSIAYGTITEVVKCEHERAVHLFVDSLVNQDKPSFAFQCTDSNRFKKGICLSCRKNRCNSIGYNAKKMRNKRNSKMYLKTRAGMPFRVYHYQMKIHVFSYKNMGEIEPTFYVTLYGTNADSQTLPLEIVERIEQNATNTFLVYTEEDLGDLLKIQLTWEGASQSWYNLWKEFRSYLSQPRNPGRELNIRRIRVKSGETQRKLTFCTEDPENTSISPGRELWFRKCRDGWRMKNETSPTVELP

IC50 [µM] | Compound
< 0.01 | CC(=O)NC(c1nnc(CNC(=O)OC(C)(C)C)o1)c1nc2ccc(-c3ccccc3)cc2s1 (centres unmarked) [Example 17, tert-butyl ((5-(acetamido(6-phenylbenzo[d]-thiazol-2-yl)methyl)-1,3,4-oxadiazol-2-yl)methyl)-carbamate]
< 0.01 | NS(=O)(=O)NCc1nnc(C(NC(=O)c2cccnc2)c2nc3ccc(-c4ccc(F)nc4)cc3s2)o1 (centres unmarked) [Example 3, N-((6-(6-fluoropyridin-3-yl)benzo[d]-thiazol-2-yl)(5-((sulfamoyl-amino)-methyl)-1,3,4-oxadiazol-2-yl)methyl)-nicotinamide]
0.131 | CC(=O)NC(c1nnc(CC2(C)NC(=O)NC2=O)o1)c1nc2ccc(-c3ccc(C(=O)N4CCOCC4)cc3)cc2s1 (centres unmarked) [Example 23, N-((5-((4-methyl-2,5-dioxoimidazolidin-4-yl)methyl)-1,3,4-oxadiazol-2-yl)(6-(4-(morpholine-4-carbonyl)phenyl)benzo[d]thiazol-2-yl)methyl)acetamide]
0.025 | COc1nc(-c2nnc(C(NC(C)=O)c3nc4ccc(-c5ccccc5)cc4s3)o2)c(O)c(=O)[nH]1 (centres unmarked) [Example 24, N-((5-(5-hydroxy-2-methoxy-6-oxo-1,6-dihydropyrimidin-4-yl)-1,3,4-oxadiazol-2-yl)(6-phenylbenzo[d]thiazol-2-yl)methyl)acetamide]
< 0.01 | CC(=O)NC(c1nnc(CNS(N)(=O)=O)o1)c1nc2ccc(-c3ccccc3)cc2s1 (centres unmarked) [Example 12, N-((6-phenylbenzo[d]thiazol-2-yl)(5-((sulfamoylamino)methyl)-1,3,4-oxadiazol-2-yl)methyl)acetamide]
< 0.01 | CC(=O)NC(c1nnc(CC2SC(=O)NC2=O)o1)c1nc2ccc(-c3ccnn3C)cc2s1 (centres unmarked) [Example 11, N-((5-((2,4-dioxo-thiazolidin-5-yl)methyl)-1,3,4-oxadiazol-2-yl)(6-(1-methyl-1H-pyrazol-5-yl)benzo[d]-thiazol-2-yl)methyl)-acetamide]
0.277 | CC(=O)NC(c1nnc(C2CNC2)o1)c1nc2ccc(-c3ccccc3)cc2s1 (centres unmarked) [Example 25, N-((5-(azetidin-3-yl)-1,3,4-oxadiazol-2-yl)(6-phenylbenzo[d]thiazol-2-yl)methyl)acetamide]
< 0.01 | CC(C)C(=O)NC(c1nnc(CNS(N)(=O)=O)o1)c1nc2ccc(-c3ccccc3)cc2s1 (centres unmarked) [Example 13, N-((6-phenylbenzo[d]-thiazol-2-yl)(5-((sulfamoylamino)-methyl)-1,3,4-oxadiazol-2-yl)methyl)-isobutyramide]
< 0.01 | Cc1noc(C)c1NC(=O)NC(c1nnc(CNS(N)(=O)=O)o1)c1nc2ccc(-c3ccc(F)nc3)cc2s1 (centres unmarked) [Example 8, 1-(3,5-dimethyl-4-isoxazolyl)-3-((6-(6-fluoro-3-pyridinyl)-1,3-benzothiazol-2-yl)(5-((sulfamoyl-amino)-methyl)1,3,4-oxadiazol-2-yl)methyl)urea]
< 0.01 | CCC(=O)NC(c1nnc(CNS(N)(=O)=O)o1)c1nc2ccc(-c3ccc(F)nc3)cc2s1 (centres unmarked) [Example 5, N-((6-(6-fluoropyridin-3-yl)benzo[d]-thiazol-2-yl)(5-M-((sulfamoyl-amino)-methyl)-1,3,4-oxadiazol-2-yl)methyl)-propionamide]
< 0.01 | CC(C)NC(=O)NC(c1nnc(CNS(N)(=O)=O)o1)c1nc2ccc(-c3ccccc3)cc2s1 (centres unmarked) [Example 15, 1-isopropyl-3-((6-phenyl-1,3-benzothiazol-2-yl)(5-((sulfamoylamino)-methyl)-1,3,4-oxadiazol-2-yl)methyl)urea]
< 0.01 | CC(=O)NC(c1nnc(CC2SC(=O)NC2=O)o1)c1nc2ccc(-c3ccc(F)nc3)cc2s1 (centres unmarked) [Example 9, N-((5-((2,4-dioxo-thiazolidin-5-yl)methyl)-1,3,4-oxadiazol-2-yl)-(6-(6-fluoropyridin-3-yl)benzo[d]-thiazol-2-yl)-methyl)-acetamide]
< 0.01 | CC(=O)NC(c1nnc(CNS(N)(=O)=O)o1)c1nc2ccc(-c3ccc(F)nc3)cc2s1 (centres unmarked) [Example 10, N-((6-(6-fluoropyridin-3-yl)benzo[d]-thiazol-2-yl)(5-((sulfamoyl-amino)-methyl)-1,3,4-oxadiazol-2-yl)methyl)-acetamide]
< 0.01 | O=C1NC(=O)C(Cc2nnc(C(NC(=O)c3ccc(C(F)(F)F)cc3)c3nc4c(F)cc(-c5ccccc5)cc4s3)o2)S1 (centres unmarked) [Example 22]
0.017 | CC(=O)NC(c1nnc(C2CN(CC(C)(C)C)C2)o1)c1nc2ccc(-c3ccccc3)cc2s1 (centres unmarked) [Example 26, N-((5-(1-neopentylazetidin-3-yl)-1,3,4-oxadiazol-2-yl)(6-phenylbenzo[d]thiazol-2-yl)methyl)acetamide]
< 0.01 | O=C1NC(=O)C(Cc2nnc(C(NC(=O)C3CC3)c3nc4c(F)cc(-c5ccccc5)cc4s3)o2)S1 (centres unmarked) [Example 21]
< 0.01 | CCOC(=O)CNC(=O)NC(c1nnc(CNS(N)(=O)=O)o1)c1nc2ccc(-c3ccc(F)nc3)cc2s1 (centres unmarked) [Example 6, ethyl 2-(3-((6-(6-fluoropyridin-3-yl)benzo[d]-thiazol-2-yl)(5-((sulfamoyl-amino)-methyl)-1,3,4-oxadiazol-2-yl)methyl)-ureido)acetate]
< 0.01 | O=C(NC(c1nnc(CS(=O)(=O)O)o1)c1nc2ccc(-c3ccccc3)cc2s1)C1CC1 (centres unmarked) [Example 18, (5-(cyclopropane-carboxamido-(6-phenylbenzo[d]-thiazol-2-yl)methyl)-1,3,4-oxadiazol-2-yl)methanesulfonic acid]
< 0.01 | NS(=O)(=O)NCc1nnc(C(NC(=O)c2ccc(C(F)(F)F)cc2)c2nc3ccc(-c4ccc(F)nc4)cc3s2)o1 (centres unmarked) [Example 2, N-((6-(6-fluoropyridin-3-yl)benzo[d]-thiazol-2-yl)(5-((sulfamoyl-amino)-methyl)-1,3,4-oxadiazol-2-yl)methyl)-4-(trifluoro-methyl)-benzamide]
< 0.01 | NS(=O)(=O)NCc1nnc(C(NC(=O)NCc2ccccc2)c2nc3ccc(-c4ccc(F)nc4)cc3s2)o1 (centres unmarked) [Example 4, 1-benzyl-3-((6-(6-fluoro-3-pyridinyl)-1,3-benzothiazol-2-yl)(5-((sulfamoyl-amino)-methyl)-1,3,4-oxadiazol-2-yl)methyl)urea]
< 0.01 | NS(=O)(=O)NCc1nnc(C(NC(=O)c2ccc(C(F)(F)F)cc2)c2nc3ccc(-c4ccccc4)cc3s2)o1 (centres unmarked) [Example 16, N-((6-phenylbenzo[d]-thiazol-2-yl)(5-((sulfamoylamino)-methyl)-1,3,4-oxadiazol-2-yl)methyl)-4-(trifluoromethyl)-benzamide]
< 0.01 | NS(=O)(=O)NCc1nnc(C(NC(=O)Nc2ccc(F)cc2)c2nc3ccc(-c4ccc(F)nc4)cc3s2)o1 (centres unmarked) [Example 7, 1-(4-fluoro-phenyl)-3-((6-(6-fluoro-3-pyridinyl)-1,3-benzothiazol-2-yl)(5-((sulfamoyl-amino)-methyl)-1,3,4-oxadiazol-2-yl)methyl)urea]
< 0.01 | O=C1NC(=O)C(Cc2nnc(C(NC(=O)c3ccc(C(F)(F)F)cc3)c3nc4ccc(-c5ccc(F)nc5)cc4s3)o2)S1 (centres unmarked) [Example 1, N-((5-((2,4-dioxothiazolidin-5-yl)methyl)-1,3,4-oxadiazol-2-yl)(6-(6-fluoropyridin-3-yl)benzo[d]thiazol-2-yl)methyl)-4-(trifluoromethyl)benzamide]
